Results taken from patent publication US11540518B2, “Fungicidal oxadiazoles” (FMC Corporation, priority 2017, dated 2023).

How the values were obtained:
Format in all cases: in vivo
[1] = tested on: Phakopsora pachyrhizi; assay: Test A: Asian soybean rust control on soybean seedlings; conditions: sprayed to run-off on soybean seedlings, inoculated the following day, 100 = 100% disease control, 0 = no control
Method in brief: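 Compounds in acetone/water (50/50) with 250 ppm PEG400 were sprayed to run-off on soybean seedlings, which were inoculated with P. pachyrhizi spores the next day. Plants were held in saturated atmosphere at 22° C for 24 h, then 8 days at 22° C, before visual rating (0–100% disease control vs controls).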

[2] = tested on: Zymoseptoria tritici; assay: Test B: wheat leaf blotch control on wheat seedlings; conditions: sprayed to run-off on wheat seedlings, inoculated the following day, 100 = 100% disease control, 0 = no control
From the text: General protocol for preparing test suspensions for Tests A-C: the test compounds were first dissolved in acetone in an amount equal to 3% of the final volume and then suspended at the desired concentration (in ppm) in acetone and purified water (50/50 mix by volume) containing 250 ppm of the surfactant PEG400 (polyhydric alcohol esters). The resulting test suspensions were then used in Tests A-C. The test solution was sprayed to the point of run-off on wheat seedlings. The following day the seedlings were inoculated with a spore suspension of Zymoseptoria tritici (the causal agent of wheat leaf blotch) and incubated in a saturated atmosphere at 24° C. for 48 h, and then moved to a growth chamber at 20° C. for 17 days, after which time disease ratings were made. Results for Tests A-C are given in Table A. In the Table, a rating of 100 indicates 100% disease control and a rating of 0 indicates no disease control (relative to the controls). A dash (-) indicates the compound was not tested.

[3] = tested on: Puccinia recondita f. sp. tritici; assay: Test C: wheat leaf rust control on wheat seedlings; conditions: sprayed to run-off on wheat seedlings, inoculated the following day, 100 = 100% disease control, 0 = no control
Method in brief: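 Wheat seedlings were sprayed to run-off with compound suspension (ppm, acetone/water with 250 ppm PEG400), then inoculated with Puccinia recondita f. sp. tritici spores the next day. Plants were held 24 h in saturated atmosphere at 20 °C, then 6 days in a 20 °C growth chamber. Disease control is rated 0-100% relative to untreated controls.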

[4] = 250 ppm (incl. values marked * = tested at 250 ppm)

Compound	Test B disease control rating [2, 4]	Test A disease control rating ([1]; 250 ppm) [%]	Test C disease control rating ([3]; 250 ppm) [%]	further results
CCOC(=O)CNC(=O)OCc1ccc(-c2noc(C(F)(F)F)n2)cc1 [Compound 4]	–	–	–	Test A disease control rating ([1]; 260 ppm): 100%; Test B disease control rating ([2]; 260 ppm): 46%; Test C disease control rating ([3]; 260 ppm): 100%
CNC(=O)OCc1ccc(-c2noc(C(F)(F)F)n2)cc1 [Compound 9]	–	–	–	Test A disease control rating ([1]; 260 ppm): 100%; Test B disease control rating ([2]; 260 ppm): 94%; Test C disease control rating ([3]; 260 ppm): 100%
O=C(OCc1cccc(-c2noc(C(F)(F)F)n2)c1)n1ccnc1 [Compound 123]	0%	–	–	pest or weed control at 250 ppm ([1]; Phakopsora pachyrhizi, 216 h, 250 ppm, read-out: Test A disease control rating): 100%; pest or weed control at 250 ppm ([3]; Puccinia recondita, 168 h, 250 ppm, read-out: Test C disease control rating): 96%
CCCNC(=O)OCc1ccc(-c2noc(C(F)(F)F)n2)cc1 [Compound 10]	97%	100	100	–
CCNC(=O)OC(COC)Cc1ccc(-c2noc(C(F)(F)F)n2)cc1 (stereo not drawn) [Compound 75]	97* %	–	–	Test A disease control rating ([1]; 10 ppm): 100%; Test C disease control rating ([3]; 10 ppm): 91%
C#CCNC(=O)OC(C)c1ccc(-c2noc(C(F)(F)F)n2)cc1 (stereo not drawn) [Compound 76]	0* %	–	–	Test A disease control rating ([1]; 10 ppm): 100%; Test C disease control rating ([3]; 10 ppm): 99%
CNC(=O)OC(c1ccc(-c2noc(C(F)(F)F)n2)cc1)c1cccc(F)c1 (stereo not drawn) [Compound 132]	95%	100	100	–
CCNC(=O)OC(c1ccc(-c2noc(C(F)(F)F)n2)cc1)c1cccc(Cl)c1 (stereo not drawn) [Compound 103]	20%	100	86	–
NC(=O)OC(c1ccc(F)cc1)c1ccc(-c2noc(C(F)(F)F)n2)cc1 (stereo not drawn) [Compound 112]	85%	100	100	–
CC(OC(=O)NC1CC1)c1ccc(-c2noc(C(F)(F)F)n2)cc1 (stereo not drawn) [Compound 77]	–	–	–	Test A disease control rating ([1]; 10 ppm): 100%; Test B disease control rating ([2]; 10 ppm): 0%; Test C disease control rating ([3]; 10 ppm): 92%
NC(=O)OCc1ccc(-c2noc(C(F)(F)F)n2)cc1F [Compound 85]	98%	100	100	–
O=C(Nc1ccccc1)OCc1ccc(-c2noc(C(F)(F)F)n2)cc1 [Compound 1]	–	–	–	Test A disease control rating ([1]; 270 ppm): 100%; Test B disease control rating ([2]; 270 ppm): 79%; Test C disease control rating ([3]; 270 ppm): 100%
NC(=O)OC(c1ccc(-c2noc(C(F)(F)F)n2)cc1)c1cccc(F)c1 (stereo not drawn) [Compound 131]	96%	100	100	–
C=C(C)CNC(=O)OCc1cccc(-c2noc(C(F)(F)F)n2)c1 [Compound 98]	3%	100	100	–
Cc1ccc(C(OC(N)=O)c2ccc(-c3noc(C(F)(F)F)n3)cc2)cc1 (stereo not drawn) [Compound 143]	69%	100	100	–
C#CCCNC(=O)OCc1ccc(-c2noc(C(F)(F)F)n2)cc1 [Compound 33]	0* %	–	–	Test A disease control rating ([1]; 10 ppm): 100%; Test C disease control rating ([3]; 10 ppm): 100%
CNC(=O)OCc1cccc(-c2noc(C(F)(F)F)n2)c1 [Compound 94]	1%	69	100	–
C=CCNC(=O)OC(c1ccccc1)c1ccc(-c2noc(C(F)(F)F)n2)cc1 (stereo not drawn) [Compound 138]	99%	100	100	–

Compound	Test B disease control rating [2, 4]	Test A disease control rating ([1]; 250 ppm) [%]	Test C disease control rating ([3]; 250 ppm) [%]	further results
O=C(OCc1ccc(-c2noc(C(F)(F)F)n2)cc1)n1ccnc1 [Compound 8, 2-[4-[5-(trifluoromethyl)-1,2,4-oxadiazol-3-yl]phenyl]methyl-1H-imidazole-1-carboxylate]	–	–	–	Test A disease control rating ([1]; 255 ppm): 100%; Test B disease control rating ([2]; 255 ppm): 13%; Test C disease control rating ([3]; 255 ppm): 100%
NC(=O)OCc1ccc(-c2noc(C(F)(F)F)n2)cc1 [Compound 17, [4-[5-(trifluoromethyl)-1,2,4-oxadiazol-3-yl]phenyl]methyl carbamate]	–	–	–	pest or weed control at 260 ppm ([1]; Phakopsora pachyrhizi, 216 h, 260 ppm, read-out: Test A disease control rating): 100%; Test B disease control rating ([2]; 260 ppm): 92%; pest or weed control at 260 ppm ([3]; Puccinia recondita, 168 h, 260 ppm, read-out: Test C disease control rating): 100%
CNC(=O)OC(c1ccccc1)c1ccc(-c2noc(C(F)(F)F)n2)cc1 (stereo not drawn) [Compound 137]	70%	100	100	–
CCNC(=O)OCc1ccc(-c2noc(C(F)(F)F)n2)s1 [Compound 39]	93* %	–	–	Test A disease control rating ([1]; 10 ppm): 96%; Test C disease control rating ([3]; 10 ppm): 95%
O=C(OC(c1ccc(-c2noc(C(F)(F)F)n2)cc1)c1cccc(F)c1)n1ccnc1 (stereo not drawn) [Compound 125]	97%	100	100	–
CNC(=O)OC(c1ccc(-c2noc(C(F)(F)F)n2)cc1)c1cccc(Cl)c1 (stereo not drawn) [Compound 102]	96%	100	90	–
CN(C)C(=O)OCc1ccc(-c2noc(C(F)(F)F)n2)cc1 [Compound 6]	–	–	–	Test A disease control rating ([1]; 260 ppm): 100%; Test B disease control rating ([2]; 260 ppm): 76%; Test C disease control rating ([3]; 260 ppm): 100%
NC(=O)OC(c1ccc(-c2noc(C(F)(F)F)n2)cc1)c1cccc(Cl)c1 (stereo not drawn) [Compound 101]	90%	100	99	–
C#CCNC(=O)OCc1cccc(-c2noc(C(F)(F)F)n2)c1 [Compound 96]	64%	100	100	–
C#CCNC(=O)OC(c1ccc(-c2noc(C(F)(F)F)n2)cc1)c1cccc(F)c1 (stereo not drawn) [Compound 135]	88%	100	100	–
CCCCNC(=O)OCc1ccc(-c2noc(C(F)(F)F)n2)cc1 [Compound 15]	–	–	–	Test A disease control rating ([1]; 265 ppm): 100%; Test B disease control rating ([2]; 265 ppm): 92%; Test C disease control rating ([3]; 265 ppm): 100%
CC(C)(OC(N)=O)c1ccc(-c2noc(C(F)(F)F)n2)cc1 [Compound 87]	99%	100	100	–
NC(=O)OCc1ccc(-c2noc(C(F)(F)F)n2)cc1Cl [Compound 86]	94%	100	100	–
CCNC(=O)OC(c1ccc(C)cc1)c1ccc(-c2noc(C(F)(F)F)n2)cc1 (stereo not drawn) [Compound 145]	28%	100	98	–
O=C(OC(c1ccc(F)cc1)c1ccc(-c2noc(C(F)(F)F)n2)cc1)n1ccnc1 (stereo not drawn) [Compound 127]	99%	100	100	–
CCNC(=O)OC(c1ccc(-c2noc(C(F)(F)F)n2)cc1)c1cccc(F)c1 (stereo not drawn) [Compound 133]	99%	100	100	–
CCNC(=O)OCc1cccc(-c2noc(C(F)(F)F)n2)c1 [Compound 95]	3%	99	100	–
